We go through two substances from patent publication US8334107B2, “Detection systems utilizing supported lipid bilayers” (priority 2005, dated 2012).

In one assay the test system is DMPG supported on MS-PPE. As to the kind of experiment: Binding curves of MLT to DMPG supported on MS-PPE (superquenching flow cytometric assay). As to conditions: flow cytometry, 10 μM AQS. Here is the method: FIGS. 18A-B show binding curves for MLT-disruption of supported lipid bilayer by natural MLT (nMLT; FIG. 18A), and synthetic MLT (sMLT; FIG. 18B). Fluorescence intensity was normalized to that without MLT as determined by flow cytometry. The error bars represent the standard deviation (SD) of the means of normalized histograms obtained for 3 replicates.
(§1) Bead suspensions of 2.5×10^5 DMPG-coated MS-PPE in 200 μL of PBS were analyzed using a FACScan flow cytometer (Becton-Dickinson, Sunnyvale, Calif.) with excitation at 488 nm. Fluorescence signals were acquired on FL-1 channel (525 nm) using log amplification and analyzed with the CellQuest software. Kinetic analysis of disruption of supported lipid bilayer by melittin was performed by acquiring real-time data with continuous mixing of samples (10^6 MS-PPE in 800 μl of PBS) using a magnetic stirrer. The raw data were analyzed using IDL Query software developed by Bruce Edwards (Cancer Center, University of New Mexico, Albuquerque, N. Mex.).
From FIG. 18, the association constant (corresponding to the reciprocal of the point of half saturation) for nMLT and sMLT with DMPG were 5×10^6 M^−1 and 1.7×10^6 M^−1, respectively. […] Lower concentrations of nMLT, in comparison to sMLT, were required to disrupt the DMPG lipid bilayer. This might be attributed to the fact that nMLT contains some phospholipase A2 (PLA2) as a contaminant. […]
(In flow cytometry, cells or beads pass a laser one at a time.)

Assay [1] relates to DMPG lipid bilayer on MS-PPE. As to the kind of experiment: Disruption of DMPG lipid bilayer on MS-PPE detected by superquenching with AQS, flow cytometry. The class given is biochemical. As to conditions: 10 μM AQS; sMLT 3.8 μM, nMLT 1.6 μM. On the procedure: Lipid bilayers were disrupted by adding Triton X-100® detergent to the bead suspension to a final concentration of 0.25% (w/v).
Bead suspensions of 2.5×10^5 PPE-coated microspheres in 200 μL PBS were analyzed using a FACScan flow cytometer (Becton-Dickinson, Sunnyvale, Calif.) with excitation at 488 nm. Fluorescence signals were acquired on the FL-1 channel (525 nm) using log amplification and analyzed with the CellQuest software.
as §1
Because an anionic lipid was used to form a lipid bilayer around MS-PPE, it was expected that MLT will disrupt the DMPG lipid bilayer by such a detergent-like action. This was tested by adding 10 μM AQS to DMPG-coated MS-PPE followed by treatment with one of the following: Triton X-100® detergent, synthetic MLT (sMLT), or natural MLT (nMLT) and immediately reading the fluorescence by flow cytometry. […] These histograms resemble the ones reported previously for MS-PPE, without a lipid coating, in absence and in presence of AQS.
The kinetics of disruption of supported lipid bilayer by MLT were monitored by measuring real-time changes in fluorescence intensity by flow cytometry (FIG. 19). Suspensions of 10^6 DMPG-coated MS-PPE in 800 μL of PBS were treated with AQS at a final concentration of 10 μM, then with either sMLT, Triton X-100® detergent, or no treatment. […] Treatment with sMLT in the absence of AQS led to an increase in normalized fluorescence (FIG. 19, trace A). This can be attributed to disruption of the lipid bilayer by sMLT, and is consistent with a reversal of the slight quenching of fluorescence caused by the formation of a DMPG lipid bilayer over MS-PPE. Addition of AQS alone to DMPG-coated MS-PPE (FIG. 19, trace C) led to a 20% reduction in fluorescence as reported earlier. Addition of Triton X-100® detergent to DMPG-coated MS-PPE after the addition of AQS (first dip in trace E, FIG. 19) caused immediate decrease in fluorescence to ˜10% of its original value (second dip in trace E, FIG. 19). In contrast, addition of sMLT, after the addition of AQS, (FIG. 19, trace D) led to a gradual reduction of fluorescence intensity to ˜20% of the original value. Although MLT forms dimers at high concentrations (Dempsey, C. E. Biochim. Biophys. Acta 1990, 1031, 143-161), it is monomeric at the concentrations used in this study. On the other hand, Triton X-100® detergent forms micelles at the concentration used in this study.

Assay [2] deals with DMPG bilayer on PPE-coated beads. Description: Microfluidic assay: detection of lipid bilayer disruption by fluorescence superquenching. The conditions noted are these: injected as 1:1 mixture with 120 μM AQS. Type of assay: biochemical. Here is the method:
The preparation of microcolumns with PPE-coated, silica beads was similar to that of with fluorescein containing beads. A 10 μL aliquot of 120 μM AQS was injected to the column. After a certain period of time, a 10 μL aliquot of 1:1 mixture of 120 μM AQS and 220 μM melittin was injected. During this process, the PPE-coated silica bead segment was irradiated at 488 nm and its fluorescence emission intensity was measured at 520 nm every 10 minutes. This experiment was repeated, while injecting 220 μM melittin first, and then 120 μM AQS.
The feasibility of using superquenching as a method of detecting membrane-toxin interactions in microcolumns was also investigated. The fluorescence intensity of the cationic polyelectrolyte poly(p-phenylene-ethynylene) polymer (PPE) can be super-quenched by the quencher 9,10-anthraquinone-2,6-disulfonic acid (AQS). […] It has been observed in flow cytometric studies that formation of DMPG membranes on PPE-coated beads will quench the PPE fluorescence to some extent. The initial rise in fluorescence intensity was probably due to the unquenching of the PPE, due to the removal of lipid bilayers from PPE-coated beads through melittin interaction, whereas the decrease in fluorescence corresponded to superquenching of PPE by AQS after disruption of DMPG bilayer by melittin. […]

In assay [3] the test system is EPC bilayer on porous silica beads. Description: Suspension study: release of fluorescein dye from lipid bilayer coated porous silica beads. Type of assay: biochemical. As to conditions: all three concentrations 15, 45 and 250 μg/mL. On the procedure: Lipid coatings on beads were disrupted using 10% Triton X-100. Each sample in micro-centrifuge tubes contained 5 mg of lipid bilayer coated, fluorescein entrapped beads in 200 μL of Tris buffer. Samples were centrifuged and 100 μL aliquots of supernatant were mixed with either 100 μL of Tris buffer or 100 μL of 10% Triton X-100® detergent in separate centrifuge tubes. The fluorescence intensity of each mixture was immediately (time=0) recorded. Each mixture was mixed with its respective bead sample in centrifuge tube and incubated at 25° C. in the dark. After 30 min, samples were centrifuged and fluorescent intensity of the supernatants was measured. Beads were resuspended in their respective supernatants. Fluorescence intensity was again measured at 90 and 150 min.
Experimental procedures were similar to the Triton X-100® detergent based analysis. For experiments with α-toxin, three different toxin concentrations: 15, 45 and 250 μg/mL were used at 37° C. and 25° C. Beads coated with EPC were used. In the experiments with melittin, 220 μM melittin was used with beads coated with either 100% EPC, 10:90 (molar ratio) mixture of DMPG and EPC or an 80:20 mixture of DMPG and DMPC. All melittin experiments were conducted at 25° C.
Previous suspension studies on disruption of lipid bilayers have been performed with small unilamellar vesicles where disruption of the lipid bilayer membranes was detected by monitoring the unquenching of a highly concentrated, encapsulated dye. In the present work disruption was monitored via release of fluorescein dye from porous beads, by measuring the increase in fluorescence intensity of the supernatant at 520 nm. Beads were first suspended in Tris buffer containing the disruptor. After selected time periods, beads were sedimented by centrifuging and a portion of the supernatant was taken for the measurement. The measured portion was added back to the bead sample to permit continuous monitoring. The scattering effect that was present in vesicle based studies was minimized by measuring only the supernatant after centrifugation of the beads.

Assay [4] has as its system supported lipid bilayer surrounding a porous bead. As to the kind of experiment: Kinetics of disruption of supported lipid bilayer by α-toxin, pH-reactive fluorescein in porous beads, flow cytometry. Type of assay: biochemical. The conditions noted are these: pH outside 11.0, inside 2.6. From the text: FIGS. 4A-B illustrates the effects of alpha-toxin on lipid bilayer integrity. FIG. 4A graphically illustrates dose-dependent release of fluorescent dye from a lipid bilayer coated microbead after introduction of different concentrations of alpha-toxin, a membrane-associated pore-forming protein from Staphylococcus aureus. The normalized fluorescence intensity (at 520 nm) of the supernatant is plotted versus time for EPC-coated, fluorescein filled porous beads when using different concentrations of α-toxin added. 10% Triton was added after 150 min. FIG. 4B illustrates the kinetics of disrupting a supported lipid bilayer by α-toxin as monitored by recording changes in fluorescence intensity every 2 minutes by flow cytometry. The lipid bilayer surrounded a porous bead that contains a pH-reactive molecule (fluorescein), and the pH outside the beads was adjusted to 11.0, whereas inside the beads the pH was 2.6. As illustrated, increasing amounts of α-toxin increases the fluorescence emitted from within the beads.
In another experiment a lipid bilayer surrounding a porous bead that contains a pH-reactive molecule (fluorescein) was exposed to α-toxin. The pH outside the beads was adjusted to 11.0, whereas inside the beads the pH was 2.6. The kinetics of disruption of supported lipid bilayer by α-toxin were monitored by recording changes in fluorescence intensity every 2 minutes by flow cytometry. For the first 8 minutes there was no significant change in fluorescence intensity (FIG. 4B). However, after 8 minutes there was a gradual increase in fluorescence intensity (FIG. 4B) resulting from insertion of α-toxin into the supported lipid bilayer thus forming channels permeable to hydrogen cations and hydroxyl ions, which reduces the difference in the pH outside and inside the microspheres. […] This can be attributed to insertion of many α-toxin channels at this high concentration leading to disruption of the lipid bilayer and immediate equilibration of the pH inside and outside the porous microspheres.

A further assay deals with EPC vesicles. As to conditions: incubation with α-toxin; cited from earlier work.

On to “nMLT: natural melittin from Sigma, contains some phospholipase A2 as a contaminant”, for which the “association constant (reciprocal of the point of half saturation) with DMPG” value in the assay with DMPG supported on MS-PPE was determined as 5e+06 M⁻¹. The “quenching of the MS-PPE after treatment” value in assay [1] was “comparable to that occurring on addition of Triton X-100”. Also, in assay [2], the “change in fluorescence intensity of bead segment” value was “slight rise in fluorescence intensity followed by a significant decrease”.

Take “α-toxin: membrane active pore-forming protein secreted by Staphylococcus aureus, ~33 kDa”: the “increase in fluorescence intensity after 150 min” value in assay [3] (25° C.) is recorded as “about 3 fold”; in assay [3] (37° C.) it was “about 6.5 fold”. In addition, the “change in fluorescence intensity” value in assay [4] (45 μg/mL) is recorded as “did not cause a change in fluorescence intensity different from the baseline”. The “concentration at which the increase in fluorescence intensity reached its maximum” value in assay [4] amounted to 15 µg/mL. The “time without significant change in fluorescence intensity before gradual increase” value in assay [4] (read every 2 minutes) was determined as 8 min. Moreover, the “dye encapsulated in EPC vesicles released” value in the assay with EPC vesicles is recorded as 27%.
